Numbers after ± are expanded uncertainties.
Experiment: xn = mol fraction of the nth substance listed
Settings: 100 kPa, Liquid; for speed of sound: Frequency=3 MHz, Linear variable-path acoustic interferometer; for mass density: Pycnometric method

C=C(C)C(=O)OCCCC [butyl 2-methyl-2-propenoate] + CC#N
Settings | mass density, 308.15 K [kg/m3] | mass density, 313.15 K [kg/m3] | mass density, 318.15 K [kg/m3] | speed of sound, 308.15 K [m/s] | speed of sound, 313.15 K [m/s] | speed of sound, 318.15 K [m/s]
x2 = 0 | 881.07 ± 1 | 876.35 ± 1 | 871.64 ± 1 | 1183 ± 1.7 | 1163.8 ± 1.7 | 1145.7 ± 1.7
x2 = 0.0681 | 878.55 ± 1 | 873.82 ± 1 | 869.11 ± 1 | 1185.9 ± 1.7 | 1166.7 ± 1.7 | 1148.6 ± 1.6
x2 = 0.1359 | 875.74 ± 1 | 871 ± 1 | 866.27 ± 1 | 1188.7 ± 1.7 | 1169.6 ± 1.6 | 1151.5 ± 1.6
x2 = 0.1976 | 872.89 ± 1 | 868.13 ± 1 | 863.39 ± 1 | 1191.2 ± 1.7 | 1172.1 ± 1.6 | 1154 ± 1.6
x2 = 0.2728 | 868.98 ± 1 | 864.2 ± 1 | 859.43 ± 1 | 1194.1 ± 1.6 | 1175 ± 1.6 | 1156.9 ± 1.6
x2 = 0.3442 | 864.75 ± 1 | 859.95 ± 1 | 855.15 ± 1 | 1196.8 ± 1.6 | 1177.7 ± 1.6 | 1159.6 ± 1.6
x2 = 0.4143 | 860.01 ± 1 | 855.18 ± 1 | 850.35 ± 1 | 1199.4 ± 1.6 | 1180.4 ± 1.6 | 1162.3 ± 1.6
x2 = 0.4658 | 856.1 ± 1 | 851.24 ± 1 | 846.39 ± 1 | 1201.4 ± 1.6 | 1182.4 ± 1.6 | 1164.3 ± 1.6
x2 = 0.5243 | 851.13 ± 1 | 846.24 ± 1 | 841.36 ± 1 | 1203.8 ± 1.6 | 1184.8 ± 1.6 | 1166.7 ± 1.6
x2 = 0.5649 | 847.3 ± 1 | 842.39 ± 1 | 837.49 ± 1 | 1205.6 ± 1.6 | 1186.6 ± 1.6 | 1168.4 ± 1.6
x2 = 0.639 | 839.36 ± 1 | 834.41 ± 1 | 829.46 ± 1 | 1209.1 ± 1.6 | 1190.2 ± 1.6 | 1171.9 ± 1.6
x2 = 0.7112 | 830.15 ± 1 | 825.14 ± 1 | 820.14 ± 1 | 1213.1 ± 1.6 | 1194.2 ± 1.6 | 1175.9 ± 1.6
x2 = 0.7836 | 819.01 ± 1 | 813.95 ± 1 | 808.89 ± 1 | 1218.1 ± 1.6 | 1199.3 ± 1.6 | 1180.9 ± 1.6
x2 = 0.8558 | 805.37 ± 1 | 800.24 ± 1 | 795.11 ± 1 | 1224.4 ± 1.6 | 1205.7 ± 1.6 | 1187.3 ± 1.6
x2 = 0.928 | 788.25 ± 1 | 783.04 ± 1 | 777.83 ± 1 | 1233 ± 1.6 | 1214.3 ± 1.6 | 1195.8 ± 1.6

Source: the NIST ThermoML archive (doi:10.1016/j.jct.2018.03.013)
